Data as given in US9868695B2 (priority 2014, dated 2018).
pIC50: −log10 of the molar value. Read-outs that look alike come from different tables or passages of the source.

Tests used:
[1] = tested on: Colo-205; test: Antiproliferative activity, MTT assay, Colo-205; assay type: cell-based; conditions: Homo sapiens, 48 h
Experimental: Human colon cancer cell lines HCT-116 (NCI, passage no. 5) and Colo-205 116 (NCI, passage no. 3) were procured from National Cancer Institute, USA. HCT-116 and Colo-205 cells were grown in McCoy's 5A and RPMI growth medium respectively containing 10% FCS, 100 U penicillin and […] per mL medium. Cells were grown in CO2 incubator (Thermocon Electron Corporation, Houston, Tex.) at 37° C. with 95% humidity and 5% CO2 gas environment. Cells treated with tested materials were dissolved in DMSO while the untreated control cultures received only the vehicle (DMSO<0.2%). Cells were seeded in 96 well plates and exposed to tested compounds at various concentrations for 48 h time interval. MTT dye (2.5 mg/ml in PBS) was added 4 hrs priors to experiment termination. The plates were then centrifuged at 1500 rpm for 15 min and the supernatant was discarded, and MTT formazan crystals were dissolved in 150 μl of DMSO. The OD measured at 570 nm with reference wavelength of 620 nm.
The percentages of cell viability and growth inhibition were calculated using formulas: […]

[2] = Thermodynamic equilibrium solubility; assay type: physicochemical; conditions: 25 °C, thermodynamic from solid, 25±1° C.
Experimental: The compounds were first dissolved in methanol to prepare stock solutions (100 and 1000 μg/mL). Different concentrations of stock solutions were pipetted into the 96-well plates and the solvent was evaporated to ensure that solid drug was present in the beginning of the experiment. Thereafter, 200 μl of the dissolution medium was added to the wells and 96-well plate was shaken horizontally at 300 rpm (Eppendorf Thermoblock Adapter, North America) for 4 h at room temperature (25±1° C.). The plates were kept overnight for equilibration of drug in medium. Later, the plates were centrifuged at 3000 rpm for 15 min (Jouan centrifuge BR4i). Supernatant (50 μl) was pipetted into UV 96-well plates (Corning® 96 Well Clear Flat Bottom UV-Transparent Microplate) for analyses with plate reader (SpectraMax Plus384) at λmax of 350 nm. The analyses were performed in triplicate for each compound. The solubility curve of concentration (μg/mL) vs absorbance was plotted to find out saturation point and the corresponding concentration was noted.

Compound: COc1cc2c(c(OC)c1OC)-c1ccc(Nc3ccc(Cl)c(C(F)(F)F)c3)c(=O)cc1[C@@H](NC(C)=O)CC2 [Compound 1g, N-[(7S)-1,2,3-Trimethoxy-9-oxo-10-[3-(trifluoromethyl)-4-chloro-phenylamino]-5,6,7,9-tetrahydrobenzo[a]heptalen-7-yl]acetamide]
- pIC50 [1]: 7.52
- solubility ([2]; aqueous buffer, phosphate buffer saline, read-out: Solubility, PBS): > 1500 µg/mL
- solubility ([2]; fassgf or other biorelevant, simulated intestinal fluid, read-out: Solubility, SIF): > 1500 µg/mL
- solubility ([2]; simulated gastric fluid, read-out: Solubility, SGF): > 1500 µg/mL
- solubility ([2]; water, read-out: Solubility, Water): > 1500 µg/mL
